Test results published in US8431577B2, “Crystalline form of eszopiclone, composition, preparation and uses thereof” (Tianjin Tasly Group Co., Ltd., priority 2008, dated 2013).
Read-outs that look alike come from different tables or passages of the source.

Key:
[1] = High temperature (60° C.) stability test; details: for Content (%) / Related substances (%) Levozopiclone / Related substances (%) Other impurities: High temperature (60° C.)
Procedure: The crystalline form of S-zopiclone of the present invention was introduced into an open and colorless transparent weighing-bottle batch by batch, and placed in a thermostat container (60° C.) for 10 days. The specimens were sampled on the 5th and 10th day respectively to measure their stability in accordance with the key stability-relevant items.

[2] = Solubility test (Chinese Pharmacopoeia 2000 general notice); type: physicochemical; details: 25±2° C.
Procedure: Solubility test had been carried out by common solvents in accordance with the method of the GENERAL NOTICE in Chinese Pharmacopoeia (2000 Edition).
Test method: an appropriate amount of fine powder of the crystalline form of S-zopiclone was weighed accurately, into which a certain amount of solvent was added with an accuracy of ±2%. At a temperature of 25±2° C., the solution was shaken violently for 30 seconds, which is repeated at 5-minute intervals. The solubility behavior within 30 minutes had been observed.

[3] = for Content (%) / Related substances (%) Levozopiclone / Related substances (%) Other impurities: Strong light exposure (4500±500 Lx)
Text: The specimens were sampled on the 5th and 10th day respectively to measure their stability in accordance with the key stability-relevant items.

[4] = Safety after single oral administration in healthy volunteers; type: in vivo, human
Procedure: Safety indices: a series of indices were measured when conducting screening and 24 hours after administration, including vital signs, physical examination, ECG and laboratory test. During the test, adverse event was recorded on time.
Safety: meaningful clinical safety indices are tabulated according to the type and the frequency thereof.
Bitter taste in mouth was reported as severe adverse reaction by a majority of subjects (25%˜40%), and another adverse reaction was dizziness and headache. […] Two subjects in the group of the dose of 12 mg/kg BW experienced the state of delirium, including talkativeness, hyperactivity and unconsciousness. […] Within 12 hours after administration, all adverse reactions disappeared without special treatment.

[5] = Crystal transformation under the stability tests (X-ray diffraction); type: physicochemical; details: under all stability tests (60° C., RH 92.5%, strong light, accelerated, long-term)

CN1CCN(C(=O)O[C@H]2c3nccnc3C(=O)N2c2ccc(Cl)cn2)CC1 [crystalline form of S-zopiclone, (+)-(S)-(4-methylpiperazine-1-carboxylate)(6-(5-chloropyridinyl-2-yl)-7-carbonyl-6,7-dihydro-5-H-pyrrolo[3,4-b]pyrazin-5-yl ester)]
stability (character, melting point, related substances versus 0th day) ([1]; 10 days of high-temperature (60° C.)): stable
Content (%) ([1]; day 0): 100.06%
Related substances (%) Levozopiclone ([1]; day 0): 0.06%
Related substances (%) Other impurities ([1]; day 0): 0.09%
Content (%) ([1]; day 5): 100.01%
Related substances (%) Levozopiclone ([1]; day 5): 0.08%
Related substances (%) Other impurities ([1]; day 5): 0.11%
Content (%) ([1]; day 10): 100.12%
Related substances (%) Levozopiclone ([1]; day 10): 0.07%
Related substances (%) Other impurities ([1]; day 10): 0.12%
Required amount of the solvent ([2]; acetone, 10 mg sample): 2.0 mL
Required amount of the solvent for dissolving 1 g of the sample ([2]; acetone): 200 mL
Solubility ([2]; acetone): slightly soluble
Required amount of the solvent ([2]; anhydrous ether, 10 mg sample): 90.0 mL
Required amount of the solvent for dissolving 1 g of the sample ([2]; anhydrous ether): 9000 mL
Solubility ([2]; anhydrous ether): very slightly soluble
Required amount of the solvent ([2]; chloroform, 100 mg sample): 0.6 mL
Required amount of the solvent for dissolving 1 g of the sample ([2]; chloroform): 6 mL
Solubility ([2]; chloroform): freely soluble
Required amount of the solvent ([2]; ethanol, 10 mg sample): 15.0 mL
Required amount of the solvent for dissolving 1 g of the sample ([2]; ethanol): 1500 mL
Solubility ([2]; ethanol): very slightly soluble
Required amount of the solvent ([2]; ethyl acetate, 10 mg sample): 6.0 mL
Required amount of the solvent for dissolving 1 g of the sample ([2]; ethyl acetate): 600 mL
Solubility ([2]; ethyl acetate): slightly soluble
Required amount of the solvent ([2]; hydrochloric acid (0.1 mol/L), 10 mg sample): 0.7 mL
Required amount of the solvent for dissolving 1 g of the sample ([2]; hydrochloric acid (0.1 mol/L)): 70 mL
Solubility ([2]; hydrochloric acid (0.1 mol/L)): Soluble
Required amount of the solvent ([2]; methanol, 10 mg sample): 5.0 mL
Required amount of the solvent for dissolving 1 g of the sample ([2]; methanol): 500 mL
Solubility ([2]; methanol): slightly soluble
Required amount of the solvent ([2]; water, 10 mg sample): 200 mL
Required amount of the solvent for dissolving 1 g of the sample ([2]; water): 20000 mL
Solubility ([2]; water): practically insoluble
stability (character, melting point, related substances versus 0th day) ([3]; 10 days of strong light exposure (4500±500 Lx)): remained stable
Content (%) ([3]; day 0): 100.06%
Related substances (%) Levozopiclone ([3]; day 0): 0.06%
Related substances (%) Other impurities ([3]; day 0): 0.09%
Content (%) ([3]; day 5): 99.77%
Related substances (%) Levozopiclone ([3]; day 5): 0.08%
Related substances (%) Other impurities ([3]; day 5): 0.10%
Content (%) ([3]; day 10): 100.02%
Related substances (%) Levozopiclone ([3]; day 10): 0.07%
Related substances (%) Other impurities ([3]; day 10): 0.11%
subjects experiencing the state of delirium (talkativeness, hyperactivity, unconsciousness) ([4]; 12 mg dose group): Two subjects
types and frequencies of adverse reactions versus low and moderate dose groups ([4]; high dose group (12 mg)): more types and higher frequencies of adverse reactions
time after administration within which all adverse reactions disappeared ([4]; without special treatment): ≤ 12 h
phenomenon of crystal transformation [5]: had not been observed
